Results on 13 compounds are retold here after PMC9440176, “Novel benzylidene benzofuranone analogues as potential anticancer agents: design, synthesis and in vitro evaluation based on CDK2 inhibition assays” (3 Biotech, 2022).

Assay [1] is described as follows: ABTS.+ radical scavenging assay. On the procedure: The assay was performed in a 96-well plate by serial dilution method. A 2 mM ABTS^.+ working solution was prepared in a phosphate buffer (Zheleva-Dimitrova et al [2010]).To this, 200 μL of aqueous potassium per sulfate (70 mM) solution was added and the solution was incubated for 24 h in the dark at room temperature to develop a blue-green color. To 30 μL of ABTS^.+ working solution, 50 μL of different concentrations (3.9–1000 μM) of the test sample solution and 170 μL of phosphate buffer (pH-7.4) were added in a well. The plate was then incubated in the dark at room temperature for 10 min. Then absorbance was measured at 690 nm using Elisa reader. Quercetin and ascorbic acid were used as standards. The percentage scavenging of ABTS^.+ was calculated using the formula, (Control Absorbance–Test Absorbance)*100/(Control Absorbance) and the anti-oxidant activity was expressed in terms of IC50 value.

For another assay, the system named is HCT 116. Description: MTT cytotoxicity assay on HCT 116. The format is cell-based, Human. The conditions noted are these: 24 h, read-out: Inhibition of cell proliferation, IC50, HCT 116. On the procedure:
(§1) The monolayer cell culture was trypsinized and the cell count was adjusted to 5.0 × 10^5 cells/ml using respective media containing 10% FBS. To each well of the 96-well microtiter plate, 100 µL of the diluted cell suspension (50,000cells/well) was added. After 24 h, when a partial monolayer was formed, the supernatant was flicked off, the monolayer was then washed once again with the medium and 100 µL of different test concentrations of test drugs were added on to the partial monolayer in microtiter plates. The plates were then incubated at 37 °C for 24 h in 5% CO2 atmosphere. After incubation, the test solutions in the wells were discarded and 100 µL of MTT (5 mg/10 ml of MTT in PBS) was added to each well. The plates were then incubated for 4 h at 37 °C in 5% CO2 atmosphere. The supernatant was then removed and 100 µL of DMSO was added and the plates were gently shaken to solubilize the formed formazan. The absorbance was measured using a microtiter plate reader at a wavelength of 590 nm. The percentage growth inhibition was thus calculated using the following formula and the concentration of the test drug required to inhibit the cell growth by 50% (IC50) values is generated from the dose–response curves for each one of the cell lines (Meerloo et al. [2011]).
(§2) The test compounds were screened for their in vitro cytotoxicity by MTT assay against two cancer cell lines, namely MCF-7, HCT-116 and normal epithelial kidney cells (Vero). Doxorubicin was used as a reference standard.
(In general: Formazan colour is commonly taken as a measure of viable cells.)

For assay [2], the system named is normal epithelial kidney cells (Vero). The experiment in a line: MTT cytotoxicity assay on Vero. The format is cell-based. The settings on record: 24 h, read-out: Inhibition of cell proliferation, IC50, Vero. On the procedure:
as §1, §2

Another assay has as its system MCF-7. Description: MTT cytotoxicity assay on MCF-7. Format: cell-based. The conditions noted are these: 24 h, read-out: Inhibition of cell proliferation, IC50, MCF-7. On the procedure:
as §1, §2

Assay [3] is described as follows: DPPH. free radical scavenging assay. On the procedure:
DPPH. assay was performed using 96-well plate by serial dilution method. The dilution of methanolic stock solution of the test compounds and standard anti-oxidants was carried out to obtain concentration in the range of 3.9–1000 µM. Quercetin and ascorbic acid were used as standards. To a 100 μL of this solution, 100 μL of 200 µM DPPH^. in methanolic solution was added. The experiment was done in triplicate and the plate was then incubated for 30 min in the dark and later the absorbance was measured at 517 nm using Elisa reader. The percentage DPPH^. Scavenging was calculated using the formula, (Control Absorbance–Test Absorbance)*100/(Control Absorbance). The anti-oxidant activity of the test compounds was expressed in terms of concentration required for 50 percentage inhibition (IC50) (Collins [2005]).
For orientation: Loss of DPPH colour is used to gauge radical scavenging.

A further assay addresses CDK2/Cyclin A (Homo sapiens, UniProt P24941). The experiment in a line: CDK2/cyclin A inhibitory assay, Z'-LYTE FRET kinase assay. Format: biochemical. The settings on record: concentration of 100 micro molar; 1000 ng/ml kinase, 1000 µM ATP. From the text: Z’-LYTE® technology involves homogeneous assay design based on FRET and is a universal platform for both screening as well as profiling protein kinases. The assay uses a peptide substrate labeled with two different fluorophores, coumarin donor and fluorescein acceptor on each end. These two fluorophores make up a FRET pair, which allows the transfer of energy when both are present on the same molecule. The initial kinase reaction transfers the ϒ-phosphate of ATP to a tyrosine or serine/threonine residue on the substrate. In a secondary reaction, referred to as the development reaction, a site-specific protease recognizes and cleaves only non-phosphorylated peptide, while phosphorylated substrate remains uncleaved. […] Upon excitation of Coumarin at 400 nm, the FRET signal is measured as a ratio between the Coumarin donor emission at 445–460 nm and the fluorescein acceptor emission at 520–535 nm(Lebakken et al. [2007]).
Initial ten-fold and two-fold dilutions of Kinase and ATP concentrations were used to choose the optimal Kinase and ATP concentration based on the % Phosphorylation.
The assay was carried out according to the kit instructions (384 well format). Briefly, 5X kinase buffer [250 mM HEPES (pH 7.5), 50 mM MgCl2, 5 mM EGTA, 0.05% BRIJ-35] was diluted to 1X using distilled water. The phosphor peptide positive control (Z’-LYTE® Tyr 4 phospho-peptide) and the non-phosphorylated negative control (Z’-LYTE® Tyr 4 peptide) were then diluted to 1:500 with 1× kinase buffer to 2 μM. […] Working development solution was then made by diluting 12 μL of the provided stock solution with 388 μL of the provided development buffer. Aliquots (20 μL) of each peptide mixture were then added to the wells of a Corning 3914 solid white microplate in replicates of 8. The development reaction was initiated by the addition of 10 μL of working development-solution to all the wells. Further, the plates were allowed to incubate at room temperature for 60 min. Reactions were then stopped by the addition of 10 μL of stop solution (Jia et al. [2008]).
Reactions were quantitated using a Tecan Robotic Microplate Reader. Reader control, blank subtraction, ratio metric calculations and finally graph plotting were carried out using Gen5™ Data Analysis Software.
The CDK2/Cyclin A assay was carried out as per the manufacturer’s instruction using suitable controls and standard.
The inhibitory assay was carried out using the stock of 10 mM in DMSO. Samples were further serially diluted to obtain concentrations of 100 μM. The concentrations were chosen based on the IC50 values obtained in the MTT assay. A total of 23 analogues were selected for the assay based on their antiproliferative activity. Further, selected compounds were screened and tested against the target CDK2/Cyclin A, and their % phosphorylation and % inhibition were recorded.

On to `CCCN1CC=C(c2c(OC)cc(OC)c3c2O/C(=C\c2ccc(Cl)cc2)C3=O)CC1` [NPA4], for which the IC50 in assay [1] amounted to 134 ± 3.71 µM; in the assay with HCT 116 it was 44 µM; in assay [2], 102 µM; with MCF-7 it was 42.1 µM; in assay [3] it was 162.34 ± 0.06 µM. In addition, the “% inhibition on CDK2/cyclin A” value at CDK2/Cyclin A is reported as 14.753%.

Take `CCN1CC=C(c2c(OC)cc(OC)c3c2O/C(=C\c2ccc(Cl)cc2)C3=O)CC1` [NEA6]: the IC50 in assay [1] was 198.18 ± 0.08 µM; with HCT 116 it was 124 µM; in assay [2] it was 192 µM; in the assay on MCF-7 it was 95.4 µM; in assay [3], 223 ± 4.87 µM. At CDK2/Cyclin A, the “% inhibition on CDK2/cyclin A” value stood at 25.879%.

As for `CCN1CC=C(c2c(OC)cc(OC)c3c2O/C(=C\c2ccccc2OC)C3=O)CC1` [NEA2], the IC50 in assay [1] is 179 ± 6 µM; in the assay on HCT 116 it was 56.7 µM; in the assay on MCF-7, 49.1 µM; in assay [3], 220 ± 2.77 µM. At CDK2/Cyclin A, the “% inhibition on CDK2/cyclin A” value amounted to 28.008%.

For `CCN1CC=C(c2c(OC)cc(OC)c3c2O/C(=C\c2ccc(OC)c(OC)c2)C3=O)CC1` [NEA5], the IC50 in assay [1] was above 1000 µM; in the assay with HCT 116, 175 µM; in assay [2] it was 177 µM; with MCF-7 it was 135 µM; in assay [3], 339 ± 9.65 µM. In addition, the “% inhibition on CDK2/cyclin A” value at CDK2/Cyclin A came out at 26.007%.

In the case of `COc1cc(OC)c(C2=CCN(C(C)C)CC2)c2c1C(=O)/C(=C/c1ccccc1C)O2` [NISOA3], the IC50 in assay [1] is 187 ± 8.03 µM; in the assay on HCT 116, 89.5 µM; in assay [2] it was above 200 µM; in the assay with MCF-7, 70.4 µM; in assay [3], 284 ± 12.3 µM. Further, the “% inhibition on CDK2/cyclin A” value on CDK2/Cyclin A was 43.654%.

For the compound `COc1ccc(/C=C2\Oc3c(c(OC)cc(OC)c3C3=CCN(C)CC3)C2=O)cc1OC` [NMA6], the IC50 in assay [1] is 200 ± 4.43 µM; in the assay with HCT 116, 123 µM; in assay [2] it was above 200 µM; with MCF-7, 98.5 µM; in assay [3] it was 258 ± 8.83 µM. The “% inhibition on CDK2/cyclin A” value on CDK2/Cyclin A amounted to 26.113%.

For the compound `CCCN1CC=C(c2c(OC)cc(OC)c3c2O/C(=C\c2ccc4ccccc4c2)C3=O)CC1` [NPA1], the IC50 in assay [1] was 101 ± 2.81 µM; in the assay with HCT 116, 94.3 µM; in assay [2], 166 µM; in the assay on MCF-7, 75 µM; in assay [3], 133 ± 19.1 µM. The “% inhibition on CDK2/cyclin A” value on CDK2/Cyclin A is on record as 16.089%.

`COc1cc(OC)c(C2=CCN(C(C)C)CC2)c2c1C(=O)/C(=C/c1ccccc1Br)O2` [NISOA2]: the IC50 is 234 ± 8.45 µM in assay [1]; 125 µM in the assay with HCT 116; above 200 µM in assay [2]; 103 µM in the assay with MCF-7; 381 ± 28.1 µM in assay [3]. Further, the “% inhibition on CDK2/cyclin A” value on CDK2/Cyclin A stood at 39.811%.

As to `CCCN1CC=C(c2c(OC)cc(OC)c3c2O/C(=C\c2ccccc2Br)C3=O)CC1` [NPA3], the IC50 in assay [1] was 123 ± 4.55 µM; with HCT 116, 67.9 µM; with MCF-7 it was 53.9 µM; in assay [3] it was 159 ± 13.9 µM. Besides, the “% inhibition on CDK2/cyclin A” value on CDK2/Cyclin A was 17.045%.

As for `CCN1CC=C(c2c(OC)cc(OC)c3c2O/C(=C\c2ccc4ccccc4c2)C3=O)CC1` [NEA1], the IC50 in assay [1] came to 120.9 ± 1.08 µM; in the assay with HCT 116 it was 68.6 µM; with MCF-7 it was 57.9 µM; in assay [3] it was 141 ± 13.9 µM. In addition, the “% inhibition on CDK2/cyclin A” value at CDK2/Cyclin A came to 32.676%.

With `O=c1c(O)c(-c2ccc(O)c(O)c2)oc2cc(O)cc(O)c12` [Quercetin, reference compound], the IC50 in assay [1] came out at 39 ± 0.58 µM; in assay [3] it was 31.42 ± 0.09 µM.

Take `CCN1CC=C(c2c(OC)cc(OC)c3c2O/C(=C\c2ccccc2Br)C3=O)CC1` [NEA3]: the IC50 was found to be 67.1 ± 3.2 µM in assay [1], 33 µM in the assay with HCT 116, 28.1 µM in the assay with MCF-7 and 85.5 ± 6.87 µM in assay [3]. Also, the “% inhibition on CDK2/cyclin A” value on CDK2/Cyclin A is given as 35.559%.

In the case of `O=C1O[C@H]([C@@H](O)CO)C(O)=C1O` [Ascorbic acid, reference compound], the figures for the IC50 in assay [1] and in assay [3] were 24.1 ± 1.23 µM and 18.5 ± 1.38 µM, respectively.
